Laboratory results from the NIST ThermoML archive (doi:10.1021/je700492k).
± gives the expanded uncertainty stated by the source.

Settings: 101.33 kPa, Liquid, Pycnometric method

mass density (298.15 K): 972.1 ± 0.9 kg/m3
mass density (313.15 K): 954 ± 0.9 kg/m3
mass density (328.15 K): 939.3 ± 0.8 kg/m3
SMILES: CC(=O)CC(C)=O [2,4-pentanedione]
